Results on 15 compounds are retold here after publication PMC6522510 (Nature Communications, 2019).

Structures can show the parent of a compound that is named as a salt. Where two headings read alike, the source gives them in different places.

Set-up in all cases: species or system AML cell lines (8); Primary HTS, single concentration about 10 uM, Cell Titer Glo viability; log10 luminescence, per cent inhibition relative to cycloheximide control
Common to all, as to conditions: 72 h, relative to cycloheximide control, log10 luminescence, inhibitor
In general terms: ATP-based viability assays read luminescence as a measure of living cells.

The subject of assay [1] is U937.
In assay [2] the test system is CHRF288-11.
Assay [3] relates to CMS.
In assay [4] the test system is MOLM-13.
The subject of assay [5] is CMK.
The subject of assay [6] is ML-2.
Assay [7] deals with MV4-11.
For assay [8], the system named is M07e.

Take `Cc1[nH]nc2c1N=C(c1ccccc1Cl)c1cc([N+](=O)[O-])ccc1N2` [SJ000581173-1]: the U937 %inh in assay [1] stood at 91.37%. Besides, in assay [2], the CHRF288-11 %inh worked out at 37.73%. In assay [3], the CMS %inh is 91.81%. Also, the MOLM-13 %inh in assay [4] is 62.4%. Moreover, the CMK %inh in assay [5] stood at 116.1%. Also, the ML-2 %inh in assay [6] was 56.78%. Moreover, in assay [7], the MV4-11 %inh is listed as 86.62%. For the same compound, the M07e %inh in assay [8] was determined as 57.3%.

On to `CN1C(=O)CC(C)(c2ccccc2)C1=O` (stereo not drawn) [SJ000552432-1, METHSUXIMIDE], for which, in assay [1], the U937 %inh is 35.22%. Besides, the CHRF288-11 %inh in assay [2] is reported as 16.75%. The CMS %inh in assay [3] was -2.292%. For the same compound, in assay [4], the MOLM-13 %inh amounted to 28.78%. For the same compound, in assay [5], the CMK %inh was 0.7754%. In addition, in assay [6], the ML-2 %inh came out at 19.33%. Also, in assay [7], the MV4-11 %inh is given as 59.35%. In assay [8], the M07e %inh is reported as 28%.

Turning to `COc1ccc2ncn(-c3cc(O[C@H](C)c4ccccc4Cl)c(C(N)=O)s3)c2c1` [SJ000573018-1, U20814/197/10], the U937 %inh in assay [1] was 80.58%. Further, the CHRF288-11 %inh in assay [2] is 95.84%. In assay [3], the CMS %inh turned out to be 74.69%. Besides, the MOLM-13 %inh in assay [4] is on record as 77.34%. Also, the CMK %inh in assay [5] was found to be 106.8%. Besides, in assay [6], the ML-2 %inh was 40.68%. Also, the MV4-11 %inh in assay [7] is listed as 78.2%. In addition, the M07e %inh in assay [8] is given as 105.8%.

As to `CS(=O)(=O)CCNCc1coc(-c2ccc3ncnc(Nc4ccc(OCc5ccccc5)cc4)c3c2)c1` [SJ000573020-1, U12271/135/2], the U937 %inh in assay [1] is given as 2.077%. The CHRF288-11 %inh in assay [2] is given as -1.974%. Besides, the CMS %inh in assay [3] is -1.503%. In addition, the MOLM-13 %inh in assay [4] amounted to 31.36%. Further, the CMK %inh in assay [5] came out at 4.823%. The ML-2 %inh in assay [6] amounted to 1.422%. The MV4-11 %inh in assay [7] is 24.68%. The M07e %inh in assay [8] is recorded as -2.581%.

Regarding `O=C(O[C@H]1CN[C@H](C#Cc2cc3ncnc(Nc4ccc5c(ccn5Cc5cc(F)ccc5F)c4)c3s2)C1)N1CCOCC1` [SJ000573160-1, U20298/150/2], the U937 %inh in assay [1] came out at 14.13%. In addition, in assay [2], the CHRF288-11 %inh came to 10.62%. Besides, the CMS %inh in assay [3] was determined as 12.05%. In addition, in assay [4], the MOLM-13 %inh came out at 10.52%. In assay [5], the CMK %inh was 5.697%. In assay [6], the ML-2 %inh was 4.843%. Further, the MV4-11 %inh in assay [7] turned out to be 8.297%. In addition, the M07e %inh in assay [8] is on record as -0.7728%.

As for `Cc1ccc2c(-c3ccnc(Nc4ccccc4)n3)c(-c3ccc(F)cc3)nn2n1` [SJ000573077-1, U18020/155/1], the U937 %inh in assay [1] is given as 0.3541%. The CHRF288-11 %inh in assay [2] stood at 5.564%. Moreover, the CMS %inh in assay [3] came to 18.56%. Further, in assay [4], the MOLM-13 %inh is -1.366%. Further, the CMK %inh in assay [5] is given as 0.5232%. Moreover, in assay [6], the ML-2 %inh was determined as 0.6284%. Further, in assay [7], the MV4-11 %inh is reported as -0.5842%. In addition, the M07e %inh in assay [8] was 7.072%.

For `O=c1ncnc2n([C@H]3O[C@@H](CO)[C@H](O)[C@@H]3O)[nH]cc1-2` (stereo in doubt) [SJ000562682-1, ALLOPURINOL RIBOSIDE], in assay [1], the U937 %inh was determined as 0.8426%. Besides, in assay [2], the CHRF288-11 %inh came out at 1.868%. In addition, the CMS %inh in assay [3] is recorded as -1.89%. In addition, the MOLM-13 %inh in assay [4] is recorded as 4.507%. For the same compound, in assay [5], the CMK %inh is listed as 1.077%. The ML-2 %inh in assay [6] turned out to be 0.3274%. For the same compound, the MV4-11 %inh in assay [7] came to 0.9814%. Moreover, in assay [8], the M07e %inh was -1.058%.

For the compound `Cc1ccccc1N1CCN(CCc2nnc3n2CCCC3)CC1` [SJ000565164-1, DAPIPRAZOLE HYDROCHLORIDE], the U937 %inh in assay [1] (U937 %inh, 10 µM) was -2.961%. Further, the CHRF288-11 %inh in assay [2] (CHRF288-11 %inh, 10 µM) amounted to 8.203%. Besides, in assay [3] (CMS %inh, 10 µM), the CMS %inh was -1.478%. In assay [4] (MOLM-13 %inh, 10 µM), the MOLM-13 %inh was 25.76%. The CMK %inh in assay [5] (CMK %inh, 10 µM) is on record as -9.616%. The ML-2 %inh in assay [6] (ML-2 %inh, 10 µM) turned out to be 2.518%. For the same compound, the MV4-11 %inh in assay [7] (MV4-11 %inh, 10 µM) was -2.751%. Moreover, the M07e %inh in assay [8] (M07e %inh, 10 µM) is given as -1.247%.

As for `O=C1NC(=N[C@@H]2C[C@H]2c2ccccc2)S/C1=C\c1ccc2ncccc2c1` [SJ000581135-1], the U937 %inh in assay [1] turned out to be 9.436%. The CHRF288-11 %inh in assay [2] is 1.296%. The CMS %inh in assay [3] is on record as -0.3906%. In addition, in assay [4], the MOLM-13 %inh was 1.012%. Moreover, the CMK %inh in assay [5] is listed as -0.2461%. Besides, in assay [6], the ML-2 %inh was determined as 0.9867%. Moreover, the MV4-11 %inh in assay [7] stood at 2.985%. For the same compound, the M07e %inh in assay [8] is on record as 3.343%.

With `FC(F)(F)c1ccc(-c2nn3ncccc3c2-c2ccnc(Nc3ccc4c(c3)OCCO4)n2)cc1` [SJ000573225-1, U17838/185/2], the U937 %inh in assay [1] is listed as -2.674%. For the same compound, in assay [2], the CHRF288-11 %inh is listed as 13.54%. Besides, the CMS %inh in assay [3] was -3.296%. In addition, in assay [4], the MOLM-13 %inh was -3.312%. Further, the CMK %inh in assay [5] was -4.267%. The ML-2 %inh in assay [6] is 1.234%. For the same compound, in assay [7], the MV4-11 %inh stood at 7.035%. Moreover, in assay [8], the M07e %inh was 2.059%.

For the compound `COc1cccc(C(=O)c2sc(Nc3ccc(N4CCN(C(C)C)CC4)cc3)nc2N)c1` [SJ000581014-1], the U937 %inh in assay [1] is 25.4%. For the same compound, the CHRF288-11 %inh in assay [2] worked out at 15.68%. Also, in assay [3], the CMS %inh worked out at 7.49%. Further, the MOLM-13 %inh in assay [4] turned out to be 103.8%. For the same compound, the CMK %inh in assay [5] was determined as 33.11%. Moreover, the ML-2 %inh in assay [6] is given as 8.496%. For the same compound, the MV4-11 %inh in assay [7] worked out at 15.32%. For the same compound, in assay [8], the M07e %inh worked out at 8.945%.

Take `c1ccc(-c2n[nH]cc2-c2ccnc(-c3ccc(OCCn4ccnc4)cc3)c2)nc1` [SJ000573223-1, FVLN/241/112/1]: the U937 %inh in assay [1] was -2.834%. For the same compound, the CHRF288-11 %inh in assay [2] was 4.882%. Moreover, the CMS %inh in assay [3] is on record as -2.708%. For the same compound, the MOLM-13 %inh in assay [4] was found to be 3.444%. In assay [5], the CMK %inh stood at 2.62%. The ML-2 %inh in assay [6] is recorded as -0.7623%. For the same compound, the MV4-11 %inh in assay [7] was found to be 2.943%. In addition, the M07e %inh in assay [8] is on record as -2.852%.

In the case of `CCCC(CCC)C(=O)O` [SJ000287008-6, VALPROATE SODIUM | VALPROIC ACID SODIUM | DIVALPROEX SODIUM | SODIUM VALPROATE | ABBOTT-44090 | NIK-313 | NIK-317 | VALPROATE SODIUM | VALPROIC ACID SODIUM SALT | | SODIUM VALPROATE | VALPROATE SODIUM | VALPROIC ACID SODIUM SALT | ABBOTT-44090 | NIK-313 | NIK-317 | | SODIUM VALPROATE | VALPROIC ACID SODIUM SALT (SODIUM VALPROATE)], the U937 %inh in assay [1] (U937 %inh, 10 µM) is -3.41%. Further, the CHRF288-11 %inh in assay [2] (CHRF288-11 %inh, 10 µM) came to 0.5614%. For the same compound, in assay [3] (CMS %inh, 10 µM), the CMS %inh is -1.126%. Also, the MOLM-13 %inh in assay [4] (MOLM-13 %inh, 10 µM) is recorded as -2.019%. Also, in assay [5] (CMK %inh, 10 µM), the CMK %inh was -3.672%. In assay [6] (ML-2 %inh, 10 µM), the ML-2 %inh is -1.422%. Moreover, in assay [7] (MV4-11 %inh, 10 µM), the MV4-11 %inh was -1.147%. Further, the M07e %inh in assay [8] (M07e %inh, 10 µM) is given as -0.5439%.

For the compound `CC(C)[C@@H]1C(=O)N(S(C)(=O)=O)[C@@H]2CCN(C(=O)/C=C/CN3CCCCC3)[C@H]21` [SJ000772418-1, GW 311616 HYDROCHLORIDE], in assay [1], the U937 %inh is given as -1.402%. In assay [2], the CHRF288-11 %inh was 12.76%. Moreover, the CMS %inh in assay [3] turned out to be 4.399%. In addition, the MOLM-13 %inh in assay [4] is recorded as -2.354%. In assay [5], the CMK %inh is reported as -2.728%. In addition, the ML-2 %inh in assay [6] was determined as 0.5681%. Moreover, in assay [7], the MV4-11 %inh is reported as 3.043%. Besides, the M07e %inh in assay [8] amounted to 1.212%.

In the case of `O=C(O)C(Cc1ccc2c(c1)oc1ccccc12)NCP(=O)(O)O` (stereo not drawn) [SJ000772433-1, CGS 35066], the U937 %inh in assay [1] turned out to be 0.4141%. The CHRF288-11 %inh in assay [2] was determined as 0.3778%. Besides, the CMS %inh in assay [3] is -0.6949%. The MOLM-13 %inh in assay [4] came out at 2.239%. For the same compound, the CMK %inh in assay [5] is -1.634%. For the same compound, in assay [6], the ML-2 %inh came out at 5.201%. Also, the MV4-11 %inh in assay [7] worked out at 3.69%. Further, in assay [8], the M07e %inh was determined as 2.079%.
